Source: US7402600B2, “Nitroderivatives of cardiovascular agents” (NicOx S.A., priority 1999, dated 2008)
“Also recorded” adds a separate entry of the source. Where two headings read alike, the source gives them in different places.

Legend:
gastric mucosa = experiment: Example F6: gastric tolerability of invention compounds versus precursor drugs, with or without L-NAME; format: in vivo, rats
Text: Gastric Tolerability Test of the Compounds According to the Invention in the Confront of the Corresponding Precursor Drugs in Conditions of Endothelial Dysfunctions Induced by L-NAME (N^w-nitro-L-arginine-methyl ester).

[1] = system: Human endothelial cells of the umbilical vein; experiment: Test 2 (CIP): apoptosis (DNA fragmentation) induced by cumene hydroperoxide in endothelial cells; format: cell-based; details: for activity at 100 µM: Homo sapiens, Endothelial cell, 1 h, read-out: Apoptosis % with respect to the controls treated only with CIP; for inhibition of apoptosis induced by CIP (in words, t Student p<0.01): CIP 5 mM
Method: Test 2 (CIP): Protection parameter of endothelial cell against the oxidative stress induced by cumene hydroperoxide (CIP).
Human endothelial cells of the umbilical vein are prepared according to an usual standard procedure. Fresh umbilical veins are filled with a 0.1% by weight collagenase solution and incubated at 37° C. for 5 minutes.
The cells are collected from the perfusate by centrifugation and harvested in culture flasks T-75, pretreated with human fibronectin. The cells are then harvested in the same medium, further added with 10 ng/ml of bovine hypothalamic growth factor. When the cells of the primary cell culture (i.e. that directly obtained from ex-vivo) form a single layer of confluent cells (about 8,000,000 cells/flask), the culture is stopped and the layers washed and trypsinized. The cellular suspensions are transferred into the wells of a cell culture plate having 24 wells, half of which is then additioned with the same culture medium containing the drug at a 10^−4M concentration, and harvested in a thermostat at 37° C. at a constant moisture. Only the cells coming from said first sub-cultures are used for the experiments with cumene hydroperoxide (CIP).
Before starting the test, the cellular culture medium is removed and the cellular layers are carefully washed with a physiologic solution at a temperature of 37° C. The wells of the culture plate are then incubated for one hour with CIP at a 5 mM concentration in the culture medium. […] 5 replicates for each sample are carried out.
Human endothelial cells of the umbilical vein are prepared according to a standard method. Fresh umbilical veins are filled with a collagenase solution 0.1% by weight and incubated at 37° C. for 5 minutes.
The cells are collected from the perfusate by centrifugation at 800 rpm and harvested in culture flasks T-75, pretreated with human fibronectin. Cells are then harvested in the same medium, added with bovine hypothalamic growth factor (100 ng/ml). When the cells of the primary cell culture (the cells directly removed from ex-vivo umbilical vein) form a single layer of confluent cells (about 8,000,000 cells/flask), harvesting is stopped and the layers are washed and trypsinized. The cellular suspensions are transferred into wells of a culture plate having 24 wells, half of said wells being added with the same culture medium containing the drug at a 10^−4M concentration, and harvested in a thermostat at 37° C. at a constant moisture (90%), CO2=5%. When the drug is not soluble in the culture medium, it is formerly dissolved in a small amount of dimethylsulphoxide. The maximum amount of dimethylsulphoxide which can be added to the culture medium is 0.5%. Only the cells coming from these first subcultures are used for the tests with cumene hydroperoxide (CIP). The cells are identified as endothelial cells by morphological examination and by the specific immunological reaction towards factor VIII; these cultures did never show contaminations from myocytes or fibroblasts.
Before starting the test, the cellular culture medium is removed and the cellular layers are carefully washed with a standard physiologic solution buffered with phosphate 0.1 M pH 7.0, at the temperature of 37° C. The content of each well is then incubated for one hour with a CIP suspension in the culture medium at a 5 mM concentration. Evaluation of the cellular damage (apoptosis) is carried out by determining the percent variation of the DNA fragmentation in the cultures containing the drug+CIP with respect to the controls treated with CIP only. […] The fluorescence of each sample was determined on 5 replicates. Statistic evaluation has been made with t Student test (p<0.01).

[2] = rats, dose and route as in the column beside (higher doses than in L-NAME animals)
[3] = drug 10^-4 M, CIP 5 mM for one hour, DNA fragmentation

SMILES: O=C(CCC(=O)OCCCCO[N+](=O)[O-])NCCCC(O)(P(=O)(O)O)P(=O)(O)O [Example 6, [4-amino-[4-oxo-(4-nitroxybutyloxy)butanoyl]-1-hyroxybutyliden] biphosphonic acid]
- % gastropathy, animals treated with L-NAME (gastric mucosa; rats, L-NAME): 10%
- % gastropathy, animals not treated with L-NAME (gastric mucosa; [2]): 20%

SMILES: O=C(O)COCCN1CCN(C(c2ccccc2)c2ccc(Cl)cc2)CC1 (centres unmarked) [Cetirizine]
- activity at 100 µM [1, 3]: 115%
- inhibition of apoptosis induced by CIP (in words, t Student p<0.01) ([1]; drug 10^-4 M): do not significantly inhibit apoptosis

SMILES: CC(C)(C)NCC(O)c1ccc(O)c(CO)c1 (centres unmarked) [Salbutamol]
- inhibition of apoptosis induced by CIP (in words, t Student p<0.01) ([1]; drug 10^-4 M): do not significantly inhibit apoptosis

SMILES: CC1(C)S[C@@H]2[C@H](NC(=O)[C@H](N)c3ccccc3)C(=O)N2[C@H]1C(=O)O [Ampicilline]
- activity at 100 µM [1, 3]: 94%
- inhibition of apoptosis induced by CIP (in words, t Student p<0.01) ([1]; drug 10^-4 M): do not significantly inhibit apoptosis

SMILES: O=C(O)Cc1ccccc1Nc1c(Cl)cccc1Cl [Diclofenac]
- % gastropathy, animals not treated with L-NAME (gastric mucosa; rat, in vivo, 4 weeks): 70%
- % gastropathy, animals treated with L-NAME (gastric mucosa; rat, in vivo, 4 weeks): 100%

SMILES: NC(=O)c1cccnc1 [Nicotinamide]
- inhibition of apoptosis induced by CIP (in words, t Student p<0.01) ([1]; drug 10^-4 M): do not significantly inhibit apoptosis

SMILES: COC(=O)[C@H](c1ccccc1Cl)N1CCc2sccc2C1 [Clopidogrel]
- activity at 100 µM [1, 3]: 110%
- inhibition of apoptosis induced by CIP (in words, t Student p<0.01) ([1]; drug 10^-4 M): do not significantly inhibit apoptosis

SMILES: O=C(Cc1ccccc1Nc1c(Cl)cccc1Cl)NC(Cc1c[nH]cn1)C(=O)OCCCCO[N+](=O)[O-] (centres unmarked) [Example 4, [2-[(2,6-dichlorophenyl)amino]-benzeneacetyloxy]-(L)-histidine 4-(nitroxy)butyl ester]
- % gastropathy, animals treated with L-NAME (gastric mucosa; rats, L-NAME): 0%
- % gastropathy, animals not treated with L-NAME (gastric mucosa; [2]): 0%

SMILES: O=C(CCC(=O)OCCCCO[N+](=O)[O-])Nc1c2c(nc3ccccc13)CCCC2 [Example 5]
- % gastropathy, animals treated with L-NAME (gastric mucosa; rats, L-NAME): 0%
- % gastropathy, animals not treated with L-NAME (gastric mucosa; [2]): 20%

SMILES: CC(=O)Nc1ccc(O)cc1 [Paracetamol]
- inhibition of apoptosis induced by CIP (in words, t Student p<0.01) ([1]; drug 10^-4 M): do not significantly inhibit apoptosis; also recorded: not significantly different with respect to that of the controls

SMILES: Nc1c(Br)cc(Br)cc1CNC1CCC(OC(=O)CCC(=O)OCCCCO[N+](=O)[O-])CC1 (centres unmarked) [Example 7, [4-oxo-(4-nitroxybutyloxy)butanoyl4-(2-amino-3,5-dibromophenyl)-methylamino] cyclohexanol ester]
- % gastropathy, animals treated with L-NAME (gastric mucosa; rats, L-NAME): 0%
- % gastropathy, animals not treated with L-NAME (gastric mucosa; [2]): 10%

SMILES: Cn1c(=O)c2c(ncn2CC(O)CO)n(C)c1=O (centres unmarked) [Diphylline]
- inhibition of apoptosis induced by CIP (in words, t Student p<0.01) ([1]; drug 10^-4 M): do not significantly inhibit apoptosis
- Apoptosis % with respect to the controls treated only with CIP [1, 3]: 95%

SMILES: CCC(C)(C)C(=O)O[C@H]1C[C@@H](C)C=C2C=C[C@H](C)[C@H](CC[C@@H]3C[C@@H](O)CC(=O)O3)[C@H]21 [Simvastatine]
- activity at 100 µM [1]: 72%

SMILES: Nc1nc2c(ncn2COCCO)c(=O)[nH]1 [Aciclovir]
- activity at 100 µM [1, 3]: 95%
- inhibition of apoptosis induced by CIP (in words, t Student p<0.01) ([1]; drug 10^-4 M): do not significantly inhibit apoptosis

SMILES: CCOC(=O)[C@H](CCc1ccccc1)N[C@@H](C)C(=O)N1CCC[C@H]1C(=O)O [Enalapril]
- activity at 100 µM [1, 3]: 80%
- inhibition of apoptosis induced by CIP (in words, t Student p<0.01) ([1]; drug 10^-4 M): do not significantly inhibit apoptosis
